Source: patent publication US20110173718A1, “HERBICIDE TOLERANT PLANTS” (SYNGENTA CROP PROTECTION, INC., priority 2008, published 2011)

Tested on: weeds
Assay: Glasshouse weed control by HST/HPPD (mesotrione) mixtures, pre-emergence
Format: in vivo
Conditions: for colby: Colby synergy score; for % Damage at 14 DAA, 1 g ai ha^−1 mesotrione / % Damage at 14 DAA, no-mesotrione: N = 3
Experimental: Weed seeds are planted out in trays containing suitable soil (for example 50% peat, 50% John Innes soil no 3) and grown in the glass house conditions under 24-27° C. day; 18-21° C. night and approximately a 14 h (or longer in UK summer) photoperiod. Humidity is ˜65% and light levels up to 2000 μmol/m^2 at bench level. Trays are sprayed with test chemicals dissolved in water with 0.2-0.25% X-77 surfactant and sprayed from a boom on a suitable track sprayer moving at about 2 mph in a suitable track sprayer (for example a DeVries spray chamber with the nozzle about 2 inches from the plant tops). Spray volume is suitably 500-1000 l/ha. Sprays are carried out both pre-emergence and over small plants at about 7-12 d post-emergence
Plants are assessed 14 DAT and herbicidal damage is scored on a scale from 0 to 100%. The HST inhibitor compound 2.30 (designated compound A in table 16 and 17), haloxydine (compound 1.1) and compound 2.13 (designated compound AE in tables 16 and 17) are sprayed at rates between 0 and 500 g/ha.

[1] = ALOMY, 16 g/ha + mesotrione 1 g ai/ha
[2] = ALOMY, 31 g/ha + mesotrione 1 g ai/ha
[3] = ALOMY, 63 g/ha + mesotrione 1 g ai/ha
[4] = ALOMY, 125 g/ha + mesotrione 1 g ai/ha
[5] = ALOMY, 250 g/ha + mesotrione 1 g ai/ha
[6] = ALOMY, 500 g/ha + mesotrione 1 g ai/ha
[7] = AMARE, 16 g/ha + mesotrione 1 g ai/ha
[8] = AMARE, 31 g/ha + mesotrione 1 g ai/ha
[9] = AMARE, 63 g/ha + mesotrione 1 g ai/ha
[10] = AMARE, 125 g/ha + mesotrione 1 g ai/ha
[11] = AMARE, 250 g/ha + mesotrione 1 g ai/ha
[12] = AMARE, 500 g/ha + mesotrione 1 g ai/ha
[13] = ECHCG, 16 g/ha + mesotrione 1 g ai/ha
[14] = ECHCG, 31 g/ha + mesotrione 1 g ai/ha
[15] = ECHCG, 63 g/ha + mesotrione 1 g ai/ha
[16] = ECHCG, 125 g/ha + mesotrione 1 g ai/ha
[17] = ECHCG, 250 g/ha + mesotrione 1 g ai/ha
[18] = ECHCG, 500 g/ha + mesotrione 1 g ai/ha
[19] = IPOHE, 16 g/ha + mesotrione 1 g ai/ha
[20] = IPOHE, 31 g/ha + mesotrione 1 g ai/ha
[21] = IPOHE, 63 g/ha + mesotrione 1 g ai/ha
[22] = IPOHE, 125 g/ha + mesotrione 1 g ai/ha
[23] = IPOHE, 250 g/ha + mesotrione 1 g ai/ha
[24] = IPOHE, 500 g/ha + mesotrione 1 g ai/ha
[25] = SETFA, 16 g/ha + mesotrione 1 g ai/ha
[26] = SETFA, 31 g/ha + mesotrione 1 g ai/ha
[27] = SETFA, 63 g/ha + mesotrione 1 g ai/ha
[28] = SETFA, 125 g/ha + mesotrione 1 g ai/ha
[29] = SETFA, 250 g/ha + mesotrione 1 g ai/ha
[30] = SETFA, 500 g/ha + mesotrione 1 g ai/ha
[31] = SOLNI, 16 g/ha + mesotrione 1 g ai/ha
[32] = SOLNI, 31 g/ha + mesotrione 1 g ai/ha
[33] = SOLNI, 63 g/ha + mesotrione 1 g ai/ha
[34] = SOLNI, 125 g/ha + mesotrione 1 g ai/ha
[35] = SOLNI, 250 g/ha + mesotrione 1 g ai/ha
[36] = SOLNI, 500 g/ha + mesotrione 1 g ai/ha

Q: For `O=c1c(-c2c(F)ccc(F)c2Cl)c(O)c2cccnc2n1CC(F)F` [Compound 2.13], which colby [1] is on record?
A: 0%

Q: And the “% Damage at 14 DAA, 1 g ai ha^−1 mesotrione” value [1]?
A: 0%

Q: What about the “% Damage at 14 DAA, no-mesotrione” value (ALOMY, 16 g/ha) of the same compound?
A: 0%

Q: What about the colby [2] of the same compound?
A: 0%

Q: And the “% Damage at 14 DAA, 1 g ai ha^−1 mesotrione” value [2]?
A: 0%

Q: And the “% Damage at 14 DAA, no-mesotrione” value (ALOMY, 31 g/ha)?
A: 0%

Q: What about the colby [3] of the same compound?
A: 0%

Q: And the “% Damage at 14 DAA, 1 g ai ha^−1 mesotrione” value [3]?
A: 0%

Q: What about the “% Damage at 14 DAA, no-mesotrione” value (ALOMY, 63 g/ha) of the same compound?
A: 0%

Q: What about the colby [4] of the same compound?
A: 0%

Q: And the “% Damage at 14 DAA, 1 g ai ha^−1 mesotrione” value [4]?
A: 0%

Q: What about the “% Damage at 14 DAA, no-mesotrione” value (ALOMY, 125 g/ha) of the same compound?
A: 0%

Q: And the colby [5]?
A: 0%

Q: And the “% Damage at 14 DAA, 1 g ai ha^−1 mesotrione” value [5]?
A: 0%

Q: And the “% Damage at 14 DAA, no-mesotrione” value (ALOMY, 250 g/ha)?
A: 0%

Q: And the colby [6]?
A: −1%

Q: What about the “% Damage at 14 DAA, 1 g ai ha^−1 mesotrione” value [6] of the same compound?
A: 0%

Q: And the “% Damage at 14 DAA, no-mesotrione” value (ALOMY, 500 g/ha)?
A: 2%

Q: And the colby [7]?
A: 5%

Q: And the “% Damage at 14 DAA, 1 g ai ha^−1 mesotrione” value [7]?
A: 7%

Q: And the “% Damage at 14 DAA, no-mesotrione” value (AMARE, 16 g/ha)?
A: 0%

Q: And the colby [8]?
A: 13%

Q: What about the “% Damage at 14 DAA, 1 g ai ha^−1 mesotrione” value [8] of the same compound?
A: 23%

Q: What about the “% Damage at 14 DAA, no-mesotrione” value (AMARE, 31 g/ha) of the same compound?
A: 8%

Q: And the colby [9]?
A: 4%

Q: And the “% Damage at 14 DAA, 1 g ai ha^−1 mesotrione” value [9]?
A: 33%

Q: And the “% Damage at 14 DAA, no-mesotrione” value (AMARE, 63 g/ha)?
A: 28%

Q: And the colby [10]?
A: 12%

Q: And the “% Damage at 14 DAA, 1 g ai ha^−1 mesotrione” value [10]?
A: 45%

Q: What about the “% Damage at 14 DAA, no-mesotrione” value (AMARE, 125 g/ha) of the same compound?
A: 32%

Q: And the colby [11]?
A: 3%

Q: And the “% Damage at 14 DAA, 1 g ai ha^−1 mesotrione” value [11]?
A: 57%

Q: And the “% Damage at 14 DAA, no-mesotrione” value (AMARE, 250 g/ha)?
A: 53%

Q: What about the colby [12] of the same compound?
A: 9%

Q: What about the “% Damage at 14 DAA, 1 g ai ha^−1 mesotrione” value [12] of the same compound?
A: 70%

Q: What about the “% Damage at 14 DAA, no-mesotrione” value (AMARE, 500 g/ha) of the same compound?
A: 60%

Q: What about the colby [13] of the same compound?
A: 0%

Q: And the “% Damage at 14 DAA, 1 g ai ha^−1 mesotrione” value [13]?
A: 0%

Q: And the “% Damage at 14 DAA, no-mesotrione” value (ECHCG, 16 g/ha)?
A: 0%

Q: What about the colby [14] of the same compound?
A: 0%

Q: And the “% Damage at 14 DAA, 1 g ai ha^−1 mesotrione” value [14]?
A: 0%

Q: And the “% Damage at 14 DAA, no-mesotrione” value (ECHCG, 31 g/ha)?
A: 0%

Q: And the colby [15]?
A: 3%

Q: And the “% Damage at 14 DAA, 1 g ai ha^−1 mesotrione” value [15]?
A: 3%

Q: What about the “% Damage at 14 DAA, no-mesotrione” value (ECHCG, 63 g/ha) of the same compound?
A: 0%

Q: And the colby [16]?
A: 3%

Q: And the “% Damage at 14 DAA, 1 g ai ha^−1 mesotrione” value [16]?
A: 3%

Q: What about the “% Damage at 14 DAA, no-mesotrione” value (ECHCG, 125 g/ha) of the same compound?
A: 0%

Q: What about the colby [17] of the same compound?
A: 2%

Q: And the “% Damage at 14 DAA, 1 g ai ha^−1 mesotrione” value [17]?
A: 2%

Q: What about the “% Damage at 14 DAA, no-mesotrione” value (ECHCG, 250 g/ha) of the same compound?
A: 0%

Q: And the colby [18]?
A: −2%

Q: And the “% Damage at 14 DAA, 1 g ai ha^−1 mesotrione” value [18]?
A: 2%

Q: And the “% Damage at 14 DAA, no-mesotrione” value (ECHCG, 500 g/ha)?
A: 3%

Q: And the colby [19]?
A: 0%

Q: And the “% Damage at 14 DAA, 1 g ai ha^−1 mesotrione” value [19]?
A: 0%

Q: And the “% Damage at 14 DAA, no-mesotrione” value (IPOHE, 16 g/ha)?
A: 0%

Q: What about the colby [20] of the same compound?
A: 0%

Q: What about the “% Damage at 14 DAA, 1 g ai ha^−1 mesotrione” value [20] of the same compound?
A: 0%

Q: What about the “% Damage at 14 DAA, no-mesotrione” value (IPOHE, 31 g/ha) of the same compound?
A: 0%

Q: What about the colby [21] of the same compound?
A: 7%

Q: And the “% Damage at 14 DAA, 1 g ai ha^−1 mesotrione” value [21]?
A: 7%

Q: And the “% Damage at 14 DAA, no-mesotrione” value (IPOHE, 63 g/ha)?
A: 0%

Q: What about the colby [22] of the same compound?
A: 0%

Q: What about the “% Damage at 14 DAA, 1 g ai ha^−1 mesotrione” value [22] of the same compound?
A: 0%

Q: What about the “% Damage at 14 DAA, no-mesotrione” value (IPOHE, 125 g/ha) of the same compound?
A: 0%

Q: And the colby [23]?
A: 5%

Q: What about the “% Damage at 14 DAA, 1 g ai ha^−1 mesotrione” value [23] of the same compound?
A: 5%

Q: And the “% Damage at 14 DAA, no-mesotrione” value (IPOHE, 250 g/ha)?
A: 0%

Q: What about the colby [24] of the same compound?
A: 0%

Q: What about the “% Damage at 14 DAA, 1 g ai ha^−1 mesotrione” value [24] of the same compound?
A: 17%

Q: What about the “% Damage at 14 DAA, no-mesotrione” value (IPOHE, 500 g/ha) of the same compound?
A: 17%

Q: And the colby [25]?
A: 0%

Q: What about the “% Damage at 14 DAA, 1 g ai ha^−1 mesotrione” value [25] of the same compound?
A: 0%

Q: And the “% Damage at 14 DAA, no-mesotrione” value (SETFA, 16 g/ha)?
A: 0%

Q: What about the colby [26] of the same compound?
A: 0%

Q: And the “% Damage at 14 DAA, 1 g ai ha^−1 mesotrione” value [26]?
A: 0%

Q: And the “% Damage at 14 DAA, no-mesotrione” value (SETFA, 31 g/ha)?
A: 0%

Q: And the colby [27]?
A: 0%

Q: What about the “% Damage at 14 DAA, 1 g ai ha^−1 mesotrione” value [27] of the same compound?
A: 0%

Q: What about the “% Damage at 14 DAA, no-mesotrione” value (SETFA, 63 g/ha) of the same compound?
A: 0%

Q: And the colby [28]?
A: 0%

Q: And the “% Damage at 14 DAA, 1 g ai ha^−1 mesotrione” value [28]?
A: 0%

Q: And the “% Damage at 14 DAA, no-mesotrione” value (SETFA, 125 g/ha)?
A: 0%

Q: And the colby [29]?
A: 0%

Q: And the “% Damage at 14 DAA, 1 g ai ha^−1 mesotrione” value [29]?
A: 0%

Q: And the “% Damage at 14 DAA, no-mesotrione” value (SETFA, 250 g/ha)?
A: 0%

Q: And the colby [30]?
A: 0%

Q: What about the “% Damage at 14 DAA, 1 g ai ha^−1 mesotrione” value [30] of the same compound?
A: 0%

Q: What about the “% Damage at 14 DAA, no-mesotrione” value (SETFA, 500 g/ha) of the same compound?
A: 0%

Q: And the colby [31]?
A: −12%

Q: And the “% Damage at 14 DAA, 1 g ai ha^−1 mesotrione” value [31]?
A: 5%

Q: And the “% Damage at 14 DAA, no-mesotrione” value (SOLNI, 16 g/ha)?
A: 0%

Q: What about the colby [32] of the same compound?
A: −3%

Q: And the “% Damage at 14 DAA, 1 g ai ha^−1 mesotrione” value [32]?
A: 23%

Q: What about the “% Damage at 14 DAA, no-mesotrione” value (SOLNI, 31 g/ha) of the same compound?
A: 12%

Q: And the colby [33]?
A: 4%

Q: And the “% Damage at 14 DAA, 1 g ai ha^−1 mesotrione” value [33]?
A: 38%

Q: And the “% Damage at 14 DAA, no-mesotrione” value (SOLNI, 63 g/ha)?
A: 22%

Q: And the colby [34]?
A: 9%

Q: And the “% Damage at 14 DAA, 1 g ai ha^−1 mesotrione” value [34]?
A: 53%

Q: What about the “% Damage at 14 DAA, no-mesotrione” value (SOLNI, 125 g/ha) of the same compound?
A: 33%

Q: What about the colby [35] of the same compound?
A: 5%

Q: And the “% Damage at 14 DAA, 1 g ai ha^−1 mesotrione” value [35]?
A: 78%

Q: What about the “% Damage at 14 DAA, no-mesotrione” value (SOLNI, 250 g/ha) of the same compound?
A: 68%

Q: What about the colby [36] of the same compound?
A: −1%

Q: What about the “% Damage at 14 DAA, 1 g ai ha^−1 mesotrione” value [36] of the same compound?
A: 87%

Q: What about the “% Damage at 14 DAA, no-mesotrione” value (SOLNI, 500 g/ha) of the same compound?
A: 85%
